Measurements taken from patent US9713613B2, “Methods and compositions for the treatment of cancer and related hyperproliferative disorders” (priority 2007, dated 2017).

Assays:
endogenous SREBPs [1] = test: SREBP activation assay (pSRE-Luc luciferase reporter) in CHO-K1 cells; format: cell-based, Chinese hamster
Description: To confirm that fatostatin impairs the function of SREBPs, the ability of endogenous SREBPs to activate transcription of an SREBP-responsive reporter gene was measured in CHO-K1 cells in the presence or absence of fatostatin (FIG. 18A).
Luciferase reporter assay. On day 0, CHO-K1 cells were plated out onto a 96-well plate in medium A (a 1:1 mixture of Ham's F-12 medium and Dulbecco's modified Eagle's medium, with 5% fetal bovine serum, 100 units/mL penicillin, and 100 μg/mL streptomycin sulfate). On day 2, the cells were transiently co-transfected with pSRE-Luc (an SRE-1-driven luciferase reporter construct) (Hua et al., 1995) and pAc-β-gal (β-gal reporter in which the expression of β-gal is controlled by an actin promoter), using Lipofectamine reagent (Invitrogen). After incubation for 5 h, the cells were washed with phosphate-buffered saline (PBS), and then incubated, in the absence or presence of fatostatin, in medium B (a 1:1 mixture of Ham's F-12 medium and Dulbecco's modified Eagle's medium, with 5% lipid-depleted serum, 100 units/mL penicillin, 100 μg/mL streptomycin sulfate, […], and 50 mM sodium mevalonate). After 20 h of incubation, the cells in each well were lysed, and aliquots were used to measure luciferase and β-galactosidase activities. Luciferase activity was normalized by the activity of β-galactosidase. For overexpression of the N-terminal matured form of SREBP-1c, pCMV-SREBP-1c(1-436) was co-transfected with pSRE-Luc and pAc-β-gal.
Standard SREBP activation assays were performed on the exemplary compounds identified in Table 4 as per the method for Fatostatin A in Example 1. The ability of endogenous SREBPs to activate transcription of an SREBP-responsive reporter gene was measured in the presence or absence of compounds 45-55 and 19 (FIG. 28), compounds 56-61 and 19 (FIG. 29) and compounds 62-66 (FIG. 30) at 5 μM in CHOK1 cells. […] The inhibitory concentrations of compounds 53 (FIG. 31) and compounds 58 and 61 (FIG. 32) were determined.

3T3-L1 cells = test: adipogenesis assay (formation of oil droplets); format: cell-based, mouse; set-up: key: +: The analogues that completely inhibited the formation of oil droplets in cells were scored to be adipogenesis-inhibiting analogues; details: formation of oil droplets in cells
Description: The adipogenesis assay was performed as described (Choi et al., 2003).

endogenous SREBPs [2] = test: Luciferase reporter assay (pSRE-Luc, normalized by β-gal) in HEK293 cells; format: cell-based, human; set-up: Luc/Gal: dose or concentration left out as unconfirmed
Description: On day 0, HEK293 cells were plated out in triplicate at a density of 5×10^3/well onto a 96-well plate in a Dulbecco's modified Eagle's medium with 10% fetal bovine serum, 100 units/mL penicillin, and 100 μg/mL streptomycin sulfate. On day 2, the cells were transiently co-transfected with the following plasmids by using Lipofectamine reagent (Invitrogen): 0.4 μg/well pSRE-Luc (an SRE-1-driven luciferase reporter construct; Hua et al., 1995 J Biol Chem 270, 29422-7), and 0.1 μg/well a b-gal reporter in which the expression of β-gal is controlled by an actin promoter in a final volume of […]. After incubation for 5 hrs at 37° C., the cells were washed with phosphate-buffered saline and then incubated in 100 μl of Dulbecco's modified Eagle's medium with 10% lipid-depleted serum, […] penicillin, and 100 μg/mL streptomycin sulfate in the absence or presence of fatostatin A. After 20 hrs of incubation, the cells in each well were lysed with 20 μL of 1× Reporter Lysis Buffer (Promega), and aliquots were used for measurement of luciferase (10 μL) and β-galactosidase (10 μL) activities. For luciferase assay, photon production was detected as counts per second in a Wallac 1420 ARVOsx multilabel counter (PerkinElmer). For β-galactosidase assays, hydrolysis of O-nitrophenyl-β-D-galactosidase was measured after incubation for 0.5 h at 37° C. by a microplate reader at the wave length of 405 nm (Tecan). The luciferase activity (counts per second) was normalized by the activity of β-galactosidase (OD units). For overexpression of the N-terminal matured form of SREBP-1c, pCMV-SREBP-1c (1-436) was co-transfected with pSRE-Luc. pSRE-Luc and pCMV-SREBP-1c (1-436) were provided by J. L. Goldstein (University of Texas Southwestern Medical Center). […]

[3] = entries 1, 19-34 (FIG. 16), None = 15.0759

Compound	activation of the SRE luciferase reporter gene by endogenous SREBPs (endogenous SREBPs [1]; CHO-K1 cells, lipid-free serum)	Inhibition of adipogenesis (3T3-L1 cells)	activation of the SRE-controlled luciferase reporter gene by endogenous SREBPs (endogenous SREBPs [2]; HEK293 cells, lipid-free serum, varied concentrations)	ability of exogenously expressed mature form of SREBP-1 to activate the reporter gene (endogenous SREBPs [2]; HEK293 cells, pCMV-SREBP-1c + pSRE-Luc)	Luc/Gal (endogenous SREBPs [2]; [3])	Luc/Gal (endogenous SREBPs [2]; entries 1, 35-39 (FIG. 17), None = 18)	Luc/Gal (endogenous SREBPs [2]; entries 1, 40-44 (FIG. 17), None = 8.2181)	Luc/Gal (endogenous SREBPs [2]; entries 1-18 (FIG. 15), none = 9.4426)	inhibition at 5 µM (endogenous SREBPs [1]; Cricetulus griseus, CHO-K1, 5 μM in CHOK1 cells)
CCCc1cc(-c2nc(-c3ccc(C)cc3)cs2)ccn1 [Compound 1, 2-propyl-4-(4-p-tolylthiazol-2-yl)pyridine]	decreased activation of the reporter gene	+	decreased in a concentration dependent manner	failed to impair	7.5537	9.414	3.4437	6.2297	–
CCCc1cc(-c2nc(-c3ccc(NS(C)(=O)=O)cc3)cs2)ccn1 [Compound 19, N-(4-(2-(2-propylpyridin-4-yl)thiazol-4-yl)phenyl)methanesulfonamide]	–	+	–	–	4.1981	–	–	–	~45%
